Results as given in patent US9913916B2, “Asymmetric bifunctional silyl monomers and particles thereof as prodrugs and delivery vehicles for pharmaceutical, chemical and biological agents” (The University of North Carolina at Chapel Hill, priority 2010, dated 2018).

Type: physicochemical
Experimental: A model degradation of an ABS pro-drug of gemcitabine attached via a di-isopropyl silyl ether linkage (iPr-GEM) was conducted.
Asymmetric bifunctional silyl ether pro-drugs were synthesized and analyzed as potential materials for controlled drug delivery in nanoparticles. Using one-step synthesis, numerous pro-drugs from the chemotherapeutics camptothecin, dasatinib, and gemcitabine were prepared. These ABS pro-drugs were placed under acidic conditions, such as those found […], and subsequent to degradation of the reversible covalent linkage(s), the pro-drug reverted back to the original active form of the chemotherapeutic. […] The rate of release increased as the steric bulk of the substituent on the Si atom decreased; Rate of Release: Et-GEM>iPr-GEM>>tBu-GEM). […] These ABS pro-drugs can be incorporated into nanoparticles and medical devices capable of releasing drugs in a controlled and tunable fashion.

Row | Compound | degradation of silyl ether linkage on exposure to acid
1 | C=CC(=O)OCCO[Si](CC)(CC)O[C@]1(CC)C(=O)OCc2c1cc1n(c2=O)Cc2cc3ccccc3nc2-1 [Et-CPT, Diethyl ABS of Camptothecin] | degraded to yield both unmodified camptothecin and HEA
2 | C=CC(=O)OCCO[Si](OC[C@H]1O[C@@H](n2ccc(N)nc2=O)C(F)(F)[C@@H]1O)(C(C)C)C(C)C [iPr-GEM, Diisopropyl ABS of Gemcitabine] | acid sensitive and reverts back to the original starting materials
